# Publication doi:10.1101/2020.10.13.20211417v1 (medRxiv, 2020)
# Legend:
# Type in all cases: in vivo, human
# [1] = Noncompartmental plasma pharmacokinetics of CN-105 in CATCH participants; conditions: for clearance / Vd / half-life: human, 1 mg/kg; for Vd: Vz
# [2] = tested on: patients with acute primary supratentorial ICH; experiment: Adverse events and safety endpoints, CATCH trial
# [3] = tested on: patients with acute primary supratentorial ICH; experiment: Hematoma volume from CT images
# [4] = Related, Treatment Emergent Non-Serious AEs
# [5] = Treatment Emergent Non-Serious AEs
# [6] = non-serious TEAE events, Total, Total severity
substance,measurement,setting,value
Ac-VSRRR-NH2 [CN-105],"Accumulation, mean (SD) ratio of AUCs","[1]; Dose 1:Dose 13, SD",1.3 (0.4)
same,CL,"[1]; Maximum, N=6",7.7 L/h
same,Vz,"[1]; Maximum, N=6",56.8 L
same,t1/2,"[1]; Maximum, N=6",8.7 h
same,"λz,ss","[1]; Maximum, N=6",0.3 h⁻¹
same,"λz,ss","[1]; Mean, N=6, SD 0.1, after last dose",0.2 h⁻¹
same,"λz,ss","[1]; Median, N=6",0.2 h⁻¹
same,CL,"[1]; Minimum, N=6",4.6 L/h
same,Vz,"[1]; Minimum, N=6",25.2 L
same,t1/2,"[1]; Minimum, N=6",2.3 h
same,"λz,ss","[1]; Minimum, N=6",0.1 h⁻¹
same,Mean (SD) maximum concentrations,"[1]; dose 13, 1.0 mg/kg IV over 30 min every 6 h, plasma, LC-MS/MS, SD 1335.9",5638.3 ng/mL
same,clearance,"[1]; plasma, intravenous",122 mL/min
same,Vd,"[1]; plasma, intravenous, Mean, N=6, SD 12.1",41.2 L
same,Vd,"[1]; plasma, intravenous, Median, N=6",37.2 L
same,half-life,"[1]; plasma, intravenous, t1/2, Mean, N=6, SD 2.2, terminal phase",4.5 h
same,half-life,"[1]; plasma, intravenous, t1/2, Median, N=6",3.8 h
same,clearance,"[1]; plasma, iv",113 mL/min
same,participants experiencing treatment emergent SAEs,[2]; 9 of 38 participants,24%
same,participants experiencing nonfatal SAEs,[2]; 12 of 38 participants,32%
same,central nervous system (CNS) infection,[2]; 38 participants,No participants
same,changes in electrocardiogram parameters,[2]; 38 participants,No participant experienced changes
same,"treatment emergent AE constipation, participants",[2]; 38 participants,26%
same,"treatment emergent AE hypomagnesemia, participants",[2]; 38 participants,18%
same,"treatment emergent AE hyponatremia, participants",[2]; 38 participants,18%
same,"treatment emergent AE hypophosphatemia, participants",[2]; 38 participants,21%
same,"treatment emergent AE leukocytosis, participants",[2]; 38 participants,24%
same,"treatment emergent AE nausea, participants",[2]; 38 participants,18%
same,"treatment emergent AE pain, participants",[2]; 38 participants,29%
same,"treatment emergent AE pyrexia, participants",[2]; 38 participants,16%
same,# of Events,[2]; All Non-Serious AEs,237
same,"# of Events, Mild",[2]; All Non-Serious AEs,183
same,"# of Events, Moderate",[2]; All Non-Serious AEs,51
same,"# of Events, Severe",[2]; All Non-Serious AEs,3
same,# of Subjects,[2]; All Non-Serious AEs,31
same,"# of Subjects, Mild",[2]; All Non-Serious AEs,30
same,"# of Subjects, Moderate",[2]; All Non-Serious AEs,19
same,"# of Subjects, Severe",[2]; All Non-Serious AEs,2
same,participants with in-hospital neurological deterioration,"[2]; Five of 38, increase of NIHSS>2 from baseline persisting more than 24 hours",13%
same,# of Events,[2]; [4],86
same,"# of Events, Mild",[2]; [4],73
same,"# of Events, Moderate",[2]; [4],13
same,"# of Events, Severe",[2]; [4],0
same,# of Subjects,[2]; [4],16
same,"# of Subjects, Mild",[2]; [4],16
same,"# of Subjects, Moderate",[2]; [4],5
same,"# of Subjects, Severe",[2]; [4],0
same,participants who died prior to 30-day follow up,"[2]; Three of 38, in-hospital, related to primary disease",8%
same,# of Events,[2]; [5],230
same,"# of Events, Mild",[2]; [5],177
same,"# of Events, Moderate",[2]; [5],50
same,"# of Events, Severe",[2]; [5],3
same,# of Subjects,[2]; [5],30
same,"# of Subjects, Mild",[2]; [5],29
same,"# of Subjects, Moderate",[2]; [5],19
same,"# of Subjects, Severe",[2]; [5],2
same,participants receiving treatment for elevated intracranial pressure,"[2]; Two of 38, both died in-hospital of brain herniation from index ICH",5%
same,"SAE Drug administration error (Medication administration error), Relatedness","[2]; all SAEs, subject 101-003, Moderate, day 2-2, Recovered / Resolved",Unrelated
same,"SAE Pneumonia (Left upper lobe pneumonia), Relatedness","[2]; all SAEs, subject 101-004, Moderate, day 1-8, Recovered / Resolved",Related
same,"SAE Failure to thrive, Relatedness","[2]; all SAEs, subject 101-004, Moderate, day 23-57, Recovered / Resolved",Unrelated
same,"SAE Cerebral haemorrhage (Left Frontal IPH), Relatedness","[2]; all SAEs, subject 101-004, Severe, day 58-62, Recovered / Resolved",Related
same,"SAE Brain herniation (Cerebral herniation), Relatedness","[2]; all SAEs, subject 101-007, Severe, day 0-5, Fatal",Unrelated
same,"SAE Respiratory failure (Hypoxic Respiratory Failure), Relatedness","[2]; all SAEs, subject 101-008, Moderate, day 2-4, Recovered / Resolved",Related
same,"SAE Urinary tract infection, Relatedness","[2]; all SAEs, subject 101-013, Moderate, day 39-44, Recovered / Resolved",Unrelated
same,"SAE Pulmonary embolism, Relatedness","[2]; all SAEs, subject 101-015, Severe, day 22-32, Recovered / Resolved",Unrelated
same,"SAE Cerebral haemorrhage (Worsening of Intracerebral Hemorrhage), Relatedness","[2]; all SAEs, subject 101-018, Severe, day 0-6, Fatal",Unrelated
same,"SAE Dural arteriovenous fistula, Relatedness","[2]; all SAEs, subject 102-002, Moderate, day 1-1, Recovered / Resolved",Unrelated
same,"SAE Deep vein thrombosis (Left Popliteal Vein), Relatedness","[2]; all SAEs, subject 102-010, Severe, day 75-83, Recovered / Resolved",Unrelated
same,"SAE Respiratory distress, Relatedness","[2]; all SAEs, subject 103-001, Moderate, day 1-35, Recovered / Resolved",Unrelated
same,"SAE Brain herniation, Relatedness","[2]; all SAEs, subject 104-001, Severe, day 0-4, Fatal",Unrelated
same,"SAE Partial seizures (Focal Seizure), Relatedness","[2]; all SAEs, subject 106-002, Severe, day 8-18, Recovered / Resolved",Unrelated
same,"treatment emergent SAEs, number of events",[2]; deemed unlikely related to study drug,Eleven
same,Grand Total,"[2]; non-serious TEAE events, Total severity",230 (100) N (%)
same,Acute kidney injury,[2]; [6],4 (1.7) N (%)
same,Agitation,[2]; [6],5 (2.2) N (%)
same,Alcohol withdrawal syndrome,[2]; [6],1 (0.4) N (%)
same,Anemia,[2]; [6],5 (2.2) N (%)
same,Anxiety,[2]; [6],1 (0.4) N (%)
same,Atelectasis,[2]; [6],1 (0.4) N (%)
same,Atrial fibrillation,[2]; [6],1 (0.4) N (%)
same,Azotemia,[2]; [6],1 (0.4) N (%)
same,Bacteremia,[2]; [6],1 (0.4) N (%)
same,Benign prostatic hyperplasia,[2]; [6],1 (0.4) N (%)
same,Bladder catheterization,[2]; [6],1 (0.4) N (%)
same,Blood phosphorus decreased,[2]; [6],1 (0.4) N (%)
same,Bradycardia,[2]; [6],2 (0.9) N (%)
same,Brain edema,[2]; [6],2 (0.9) N (%)
same,Candida infection,[2]; [6],1 (0.4) N (%)
same,Chest pain,[2]; [6],2 (0.9) N (%)
same,Cognitive disorder,[2]; [6],1 (0.4) N (%)
same,Confusional state,[2]; [6],1 (0.4) N (%)
same,Constipation,[2]; [6],11 (4.8) N (%)
same,Cough,[2]; [6],1 (0.4) N (%)
same,Decubitus ulcer,[2]; [6],1 (0.4) N (%)
same,Deep vein thrombosis,[2]; [6],1 (0.4) N (%)
same,Dehydration,[2]; [6],1 (0.4) N (%)
same,Delirium,[2]; [6],5 (2.2) N (%)
same,Depressed mood,[2]; [6],3 (1.3) N (%)
same,Depression,[2]; [6],1 (0.4) N (%)
same,Diarrhea,[2]; [6],2 (0.9) N (%)
same,Dysphagia,[2]; [6],3 (1.3) N (%)
same,Dyspnea,[2]; [6],3 (1.3) N (%)
same,Edema,[2]; [6],2 (0.9) N (%)
same,Endotracheal intubation,[2]; [6],1 (0.4) N (%)
same,Eustachian tube dysfunction,[2]; [6],1 (0.4) N (%)
same,Exophthalmos,[2]; [6],1 (0.4) N (%)
same,Fall,[2]; [6],5 (2.2) N (%)
same,Flatulence,[2]; [6],2 (0.9) N (%)
same,Gastrointestinal hemorrhage,[2]; [6],1 (0.4) N (%)
same,Headache,[2]; [6],4 (1.7) N (%)
same,Helicobacter infection,[2]; [6],1 (0.4) N (%)
same,Hematocrit decreased,[2]; [6],1 (0.4) N (%)
same,Hydrocephalus,[2]; [6],3 (1.3) N (%)
same,Hyperchloremia,[2]; [6],2 (0.9) N (%)
same,Hyperglycemia,[2]; [6],5 (2.2) N (%)
same,Hyperlipidemia,[2]; [6],2 (0.9) N (%)
same,Hypermagnesemia,[2]; [6],2 (0.9) N (%)
same,Hypernatremia,[2]; [6],1 (0.4) N (%)
same,Hypocalcemia,[2]; [6],5 (2.2) N (%)
same,Hypoglycemia,[2]; [6],1 (0.4) N (%)
same,Hypokalemia,[2]; [6],4 (1.7) N (%)
same,Hypomagnesemia,[2]; [6],7 (3) N (%)
same,Hyponatremia,[2]; [6],7 (3) N (%)
same,Hypophosphatemia,[2]; [6],9 (3.9) N (%)
same,Hypotension,[2]; [6],2 (0.9) N (%)
same,Impulsive behaviour,[2]; [6],2 (0.9) N (%)
same,Intracranial pressure increased,[2]; [6],2 (0.9) N (%)
same,Lactic acidosis,[2]; [6],2 (0.9) N (%)
same,Leukocytosis,[2]; [6],9 (3.9) N (%)
same,Medical observation,[2]; [6],1 (0.4) N (%)
same,Muscle spasticity,[2]; [6],1 (0.4) N (%)
same,Musculoskeletal pain,[2]; [6],1 (0.4) N (%)
same,Nasal congestion,[2]; [6],3 (1.3) N (%)
same,Nausea,[2]; [6],7 (3) N (%)
same,Neuralgia,[2]; [6],2 (0.9) N (%)
same,Neurological decompensation,[2]; [6],1 (0.4) N (%)
same,Pain,[2]; [6],12 (5.2) N (%)
same,Partial seizures,[2]; [6],1 (0.4) N (%)
same,Patella fracture,[2]; [6],1 (0.4) N (%)
same,Pneumocephalus,[2]; [6],1 (0.4) N (%)
same,Pneumonia,[2]; [6],4 (1.7) N (%)
same,Pneumonia aspiration,[2]; [6],1 (0.4) N (%)
same,Pneumothorax,[2]; [6],2 (0.9) N (%)
same,Procedural pain,[2]; [6],1 (0.4) N (%)
same,Pulmonary congestion,[2]; [6],1 (0.4) N (%)
same,Pulmonary embolism,[2]; [6],1 (0.4) N (%)
same,Pyrexia,[2]; [6],6 (2.6) N (%)
same,Reflux gastritis,[2]; [6],1 (0.4) N (%)
same,Respiratory failure,[2]; [6],1 (0.4) N (%)
same,Scleral oedema,[2]; [6],1 (0.4) N (%)
same,Scrotal irritation,[2]; [6],1 (0.4) N (%)
same,Seizure,[2]; [6],2 (0.9) N (%)
same,Sepsis,[2]; [6],1 (0.4) N (%)
same,Sleep apnea syndrome,[2]; [6],1 (0.4) N (%)
same,Somnolence,[2]; [6],1 (0.4) N (%)
same,Staphylococcal infection,[2]; [6],1 (0.4) N (%)
same,Subarachnoid haemorrhage,[2]; [6],2 (0.9) N (%)
same,Tachycardia,[2]; [6],2 (0.9) N (%)
same,Tachypnea,[2]; [6],3 (1.3) N (%)
same,Thrombocytopenia,[2]; [6],3 (1.3) N (%)
same,Thrombocytosis,[2]; [6],1 (0.4) N (%)
same,Thrombosis,[2]; [6],1 (0.4) N (%)
same,Tremor,[2]; [6],1 (0.4) N (%)
same,Troponin increased,[2]; [6],1 (0.4) N (%)
same,Urinary incontinence,[2]; [6],1 (0.4) N (%)
same,Urinary retention,[2]; [6],4 (1.7) N (%)
same,Urinary tract infection,[2]; [6],4 (1.7) N (%)
same,Vomiting,[2]; [6],2 (0.9) N (%)
same,"Treatment emergent SAE Pneumonia (Left upper lobe pneumonia), Relatedness","[2]; subject 101-004, Moderate, day 1-8, Recovered / Resolved",Related
same,"Treatment emergent SAE Failure to thrive, Relatedness","[2]; subject 101-004, Moderate, day 23-57, Recovered / Resolved",Unrelated
same,"Treatment emergent SAE Cerebral haemorrhage (Left Frontal IPH), Relatedness","[2]; subject 101-004, Severe, day 58-62, Recovered / Resolved",Related
same,"Treatment emergent SAE Urinary tract infection, Relatedness","[2]; subject 101-013, Moderate, day 39-44, Recovered / Resolved",Unrelated
same,"Treatment emergent SAE Pulmonary embolism, Relatedness","[2]; subject 101-015, Severe, day 22-32, Recovered / Resolved",Unrelated
same,"Treatment emergent SAE Dural arteriovenous fistula, Relatedness","[2]; subject 102-002, Moderate, day 1-1, Recovered / Resolved",Unrelated
same,"Treatment emergent SAE Deep vein thrombosis (Left Popliteal Vein), Relatedness","[2]; subject 102-010, Severe, day 75-83, Recovered / Resolved",Unrelated
same,"Treatment emergent SAE Respiratory distress, Relatedness","[2]; subject 103-001, Moderate, day 1-35, Recovered / Resolved",Unrelated
same,"Treatment emergent SAE Partial seizures (Focal Seizure), Relatedness","[2]; subject 106-002, Severe, day 8-18, Recovered / Resolved",Unrelated
same,Mean (SD) hematoma volume by CT,[3]; Day 1 after ICH,25.1 (25.1) cm^3
same,Mean (SD) hematoma volume by CT,[3]; Day 2 after ICH,21.9 (24.9) cm^3
same,Mean (SD) hematoma volume by CT,[3]; Day 5 after ICH,19.7 (19.6) cm^3
same,hematoma volumes versus 1:1 matched ERICH participants,"[3]; Days 0, 1, 2, 5, box plots, descriptive",No difference
same,participants with incidence of hemorrhage extension,"[3]; Nine of 38, one with clinical deterioration",24%
same,Mean (SD) hematoma volume by CT,[3]; on admission,22.8 (23.7) cm^3
